Read-outs that look alike come from different tables or passages of the source.

Data set [1] can be described thus: Dissolution in ion-exchanged water to prepare a 30 mass % coating liquid. In kind it is physicochemical. The method, then: The lyotropic liquid crystalline compound of formula (4) was dissolved in ion-exchanged water, thereby preparing a coating liquid having a concentration of the lyotropic liquid crystalline compound of 30 mass %.
The lyotropic liquid crystalline compound of formula (5) was dissolved in ion-exchanged water, thereby preparing a coating liquid having a concentration of the lyotropic liquid crystalline compound of 30 mass %.
In Comparative Example 1, there was used a perylenetetracarboxylic acid diimide represented by formula (6), which was an intermediate product in Synthesis Example 1 of Lyotropic Liquid Crystalline Compound. Using this compound, it was tried to obtain a coating liquid having a concentration of the lyotropic liquid crystalline compound of 30 mass % in the same manner as in Example 1.
In Comparative Example 2, there was used a compound represented by formula (7), which was an intermediate product in Synthesis Example 2 of Lyotropic Liquid Crystalline Compound. Using this compound, it was tried to obtain a coating liquid having a concentration of the lyotropic liquid crystalline compound of 30 mass % in the same manner as in Example 1.

Data set [2] in a line: Observation of liquid crystal phase of the coating liquid under a polarizing microscope. The class given is physicochemical. To be noted: 30 mass % in ion-exchanged water, observed at 23° C. The text has this:
A small amount of the coating liquid was sandwiched between two glass slides, and a liquid crystal phase thereof was observed using a polarizing microscope (manufactured by Olympus Corporation, product name: “OPTIPHOT-POL”) equipped with a large-sized sample heating/cooling stage for microscope (manufactured by Japan High Tech Co., Ltd., product: name “10013L”).

For the compound `C[n+]1ccc(N2C(=O)c3ccc4c5ccc6c7c(ccc(c8ccc(c3c48)C2=O)c75)C(=O)N(c2cc[n+](C)cc2)C6=O)cc1` [formula (4), N,N′-bis(4-N-methylpyridyl)-3,4,9,10-perylenecarboxylic acid diimide dichloride], in data set [1] (ion-exchanged water, target concentration 30 mass %), the “solubility in ion-exchanged water” value is “dissolved in water easily and well”. In addition, the “liquid crystal phase of coating liquid” value in data set [2] is listed as “nematic liquid crystal phase”.

In the case of `C[n+]1ccc2c(c1)nc1c3ccc4c5ccc6c(=O)n7c8cc[n+](C)cc8nc7c7ccc(c8ccc(c(=O)n21)c3c84)c5c67` [formula (5)], in data set [1], the “solubility in ion-exchanged water” value was “dissolved in water easily and well”. The “liquid crystal phase of coating liquid” value in data set [2] is recorded as “nematic liquid crystal phase”.

Consider `O=C1c2ccc3c4ccc5c6c(ccc(c7ccc(c2c37)C(=O)N1c1ccncc1)c64)C(=O)N(c1ccncc1)C5=O` [formula (6), perylenetetracarboxylic acid diimide, reference compound], for which the “solubility in ion-exchanged water” value in data set [1] is reported as “scarcely dissolved in ion-exchanged water”.

`O=c1c2ccc3c4ccc5c6c(ccc(c7ccc(c2c37)c2nc3cnccc3n12)c46)c(=O)n1c2ccncc2nc51` [formula (7), reference compound]: the “solubility in ion-exchanged water” value in data set [1] is listed as “scarcely dissolved in ion-exchanged water”. Moreover, the “liquid crystal phase of coating liquid” value in data set [2] is given as “no liquid crystal phase”.

Values taken from patent publication US20120313040A1, “COATING LIQUID, OPTICAL ANISOTROPIC FILM AND IMAGE DISPLAY DEVICE” (NITTO DENKO CORPORATION, priority 2011, published 2012).
